Reference: ChEMBL document CHEMBL1135795, “Bacteriopurpurinimides: highly stable and potent photosensitizers for photodynamic therapy” (J Med Chem, 2002)

Assay: Partition coefficient (logP)
Type: physicochemical
Conditions: octanol/water

| logP (read-out: logP) | logP | SMILES |
| --- | --- | --- |
| 8.18 | – | CCCCCCN1C(=O)c2c3nc(cc4[nH]c(cc5nc(cc6[nH]c2c(c6C)C1=O)[C@H](CC)[C@H]5C)c(C(C)OC)c4C)[C@@H](C)[C@@H]3CCC(=O)OCCC (stereo partly drawn) |
| – | 9.16 | CCCCCCN1C(=O)C2=C(C)c3cc4[nH]c(cc5[nH]c(cc6nc(c(c2n3)C1=O)[C@@H](CCC(=O)OCCC)[C@@H]6C)c(C)c5C(C)OCCC)[C@H](C)[C@H]4CC (stereo partly drawn) |
| – | 11.19 | CCCCCCCOC(C)C1=C(C)c2cc3[nH]c(c4c5[nH]c(cc6nc(cc1n2)[C@H](C)[C@H]6CC)c(C)c5C(=O)N(CCCCCC)C4=O)[C@@H](CCC(=O)OCCC)[C@@H]3C (stereo partly drawn) |
